The record followed here is patent US20230116399A1, “Tumor Homing Statin Derivatives” (Da Zen Theranostics, Inc., priority 2019, published 2023).

Holding throughout (assay type): cell-based, human
The subject of test [1] is 22Rv1 cancer cells. Briefly: Western blot for polyubiquitinated proteins. The following applies: anti-ubiquitin antibody. The procedure:
Example 3D: Proteins are denatured and separated as described in example 3C; on the membrane a western blot is performed using an antibody that targets ubiquitin for detection of polyubiquitinated proteins; the probes include a molecular weight marker (“Marker”), DMSO (vehicle which serves as a control), an unconjugated statin (Simvastatin), an unconjugated dye (DZ1), and the THSD (here ALSD of formula FIId, “DZ2a”, compound 7). […] Thus it is shown that THSD prevent the removal of polyubiquitinated proteins by cancer cells through altered autophagic processes which involve defective lysosomal functions.
(In general: In western blotting, separated proteins are transferred to a membrane and probed.)

The test system of test [2] is A549 (LC). Briefly: MTT cell viability, A549. The following applies: 48 h / 24 hours, relative IC50. How it is done: (§1) Cell culture: In the following examples, unless otherwise specified, all cell lines are purchased from American Type Culture Collection and cultured in American Type Culture Collection (ATCC)-recommended media, with fetal bovine serum (FBS) to a final concentration of 10% and 1×penicillin/streptomycin at 37° C. with 5% CO2 in a cell culture incubator, unless otherwise specified. Unless otherwise specified, culture is 2D. Where culture is 3D, low attachment plates are used, with the same media. C4-2B (parental cell line and drug-resistant cells derived therefrom) are cultured in RPMI-1640 with 10% FBS. MDVR cells (an Enzalutamide-resistant variety of C4-2B prostate cancer cells formed as described in Example 4 below) are cultured as indicated for the parental C4-2B cells. 22RV1 Prostate Cancer (PC) cells (ATCC® CRL-2505™, a human prostate carcinoma cell line of epithelial morphology) are cultured in RPMI-1640 with 10% FBS. A549 cells (ATCC® CCL-185™, a human lung carcinoma cell line of epithelial morphology) are cultured in F-12K medium with 10% FBS. A549/DDP cells (Cells were described in DOI: 10.3892/mmr.2014.2163 and in doi: 10.7150/jca.19426; cisplatin resistant cells may be established from exposing parental A549 cells to cisplatin for an extended time). MDR A549/cisplatin lung adenocarcinoma cell line, drug resistant) are cultured in F-12K medium with 10% FBS. H1975 cells (ATCC® CRL-5908™, a human adenocarcinoma non-small cell lung cancer cell line of epithelial morphology) are cultured in RPMI-1640 medium with 10% FBS; H1975 cells are a cell model for human lung cancer that is resistant to Gefitinib (an EGFR inhibitor drug used for treatment of certain breast, lung and other cancers). H1650 cells (ATCC® CRL-5883™, a adenocarcinoma/bronchoalveolar carcinoma lung cancer cell line of epithelial morphology) are cultured in RPMI-1640 medium with 10% FBS. […]

The test system of test [3] is A549DDP (LC). Briefly: MTT cell viability, A549DDP. The following applies: 48 h / 24 hours, relative IC50. The procedure: as §1
[…] For each cell line, the IC50 is determined for each drug, i.e. the ELSD, the ALSD, and for the corresponding unconjugated statin (Simvastatin), in concentrations from 0.1-100 μM. […]

The subject of test [4] is H1975 (LC). Briefly: MTT cell viability, H1975. The following applies: relative IC50. The procedure: as §1
Test [5] relates to H1650 (LC). Briefly: MTT cell viability, H1650. The following applies: relative IC50. How it is done: as §1
The test system of test [6] is PC9 (LC). Briefly: MTT cell viability, PC9. To be noted: 48 h / 24 hours, relative IC50. How it is done: as §1
For test [7], the system named is H446 (LC). Briefly: MTT cell viability, H446. The following applies: relative IC50. The procedure:
as §1

A word on the IC50: it is the concentration that gives 50% inhibition. Higher therefore signals a need for much substance. For `CC1(C)C(/C=C/C2=C(Cl)C(=C/C=C3/N(CCCCCC(=O)O)c4ccccc4C3(C)C)/CCC2)=[N+](CCCCS(=O)(=O)[O-])c2ccccc21` [DZ1], the “ubiquitin signal (polyubiquitinated proteins)” value in test [1] is “much weaker signals and less of a smear”. The 50% inhibitory concentration (IC50) in test [2], in test [3], in test [4] (48 h / 24 hours), in test [5] (48 h / 24 hours), in test [6] and in test [7] (48 h / 24 hours) was over 50 µM each time.

As to `CCC(C)(C)C(=O)O[C@H]1C[C@@H](C)C=C2C=C[C@H](C)[C@H](CC[C@@H]3C[C@@H](O)CC(=O)O3)[C@H]21` [Simvastatin], the 50% inhibitory concentration (IC50) in test [2] (Homo sapiens) is over 50 µM; in test [3] (Homo sapiens, A549/DDP), 30 µM; in test [4] (Homo sapiens, NCI-H1975, 48 h / 24 hours), over 50 µM; in test [5] (Homo sapiens, NCI-H1650, 48 h / 24 hours) it was 33.3 µM; in test [6] (Homo sapiens) it was 33 µM; in test [7] (Homo sapiens, NCI-H446, 48 h / 24 hours) it was 39 µM.
